Here are results for eleven compounds from ChEMBL document CHEMBL1201862, “PubChem BioAssay data set” (2004).

Structures are written as SMILES.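 Exposure lasted 48 hours, with cells grown in 96-well plates and compounds tested at five concentrations. Here, GI50 denotes the concentration required for 50% inhibition of growth.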 Active and inactive are the calls of the source. Cut-off read from the data, not from the text of the source: active = GI50 up to about 1.1 µM and inactive = higher.

One may read the GI50 as the concentration that inhibits growth by half.

Test systems include A498; ACHN; CAKI-1; DU-145; HCT-15; HOP-62; K562; KM12; MCF7; MDA-MB-231; NCI-H460; OVCAR-3; OVCAR-4; OVCAR-8; RPMI-8226; SF-539; SK-MEL-2; SNB-19; SW-620; UACC-257.
Test in all cases: DTP human tumour cell line panel, 48 h

In the case of `Cn1c(-c2ccc[se]2)ccc1-c1ccc(C=O)[se]1`, the GI50 in the experiment on A498 was 1.17 µM (inactive); in the experiment with ACHN it was 46.6 µM (inactive); in the experiment on CAKI-1 it was 0.195 µM (active); with DU-145, 29.4 µM (inactive); in the experiment with HCT-15, 8.15 µM; in the experiment with HOP-62, 0.385 µM (active). Moreover, the GI50 in the experiment on K562 was 0.323 µM (active); with KM12, > 100 µM (inactive); in the experiment with MCF7 it was 0.124 µM (active); in the experiment with MDA-MB-231 it was 35.9 µM (inactive); in the experiment with NCI-H460 it was 0.308 µM (active); in the experiment with OVCAR-3, 0.366 µM (active). In addition, the GI50 with OVCAR-4 is 0.247 µM (active); in the experiment with OVCAR-8 it was 6.98 µM (inactive); with RPMI-8226, 1.03 µM (active); with SF-539, 3.89 µM (inactive); in the experiment with SK-MEL-2, 65.3 µM (inactive); in the experiment on SNB-19, > 100 µM (inactive). In addition, the GI50 with SW-620 is 1.3 µM (inactive); in the experiment with UACC-257, 0.796 µM (active).
Take `O=C1NC(c2ccccc2)C1N(Cc1ccccc1)Cc1ccccc1` (stereo unspecified): the GI50 was > 100 µM (inactive) in the experiment with A498; > 100 µM (inactive) in the experiment on ACHN; > 100 µM (inactive) with CAKI-1; > 100 µM (inactive) with DU-145; over 100 µM with HCT-15; > 100 µM (inactive) in the experiment on HOP-62. Further, the GI50 in the experiment with K562 is > 100 µM (inactive); with KM12, > 100 µM (inactive); in the experiment on MCF7 it was > 100 µM (inactive); in the experiment with MDA-MB-231, 74.1 µM (inactive); in the experiment on NCI-H460, > 100 µM (inactive); in the experiment on OVCAR-3, > 100 µM (inactive). For the same compound, the GI50 in the experiment with OVCAR-4 is 59.8 µM (inactive); with OVCAR-8, > 100 µM (inactive); in the experiment with RPMI-8226, > 100 µM (inactive); in the experiment on SF-539, > 100 µM (inactive); with SK-MEL-2, > 100 µM (inactive); in the experiment on SNB-19 it was > 100 µM (inactive). Also, the GI50 with SW-620 and in the experiment on UACC-257 was > 100 µM (inactive) in each case.
`O=c1c2ccccc2nnn1-c1n[nH]c2ccccc12`: the GI50 in the experiment with A498 was > 100 µM (inactive); in the experiment on ACHN it was > 100 µM (inactive); in the experiment on CAKI-1 it was > 100 µM (inactive); in the experiment with DU-145, > 100 µM (inactive); in the experiment on HCT-15 it was over 100 µM; in the experiment on HOP-62, > 100 µM (inactive). The GI50 in the experiment on KM12, in the experiment on MCF7, in the experiment on MDA-MB-231, with NCI-H460, in the experiment on OVCAR-3 and in the experiment with OVCAR-4 was > 100 µM (inactive) in each case. The GI50 in the experiment on RPMI-8226, in the experiment on SF-539, with SK-MEL-2, in the experiment on SNB-19, in the experiment on SW-620 and with UACC-257 was > 100 µM (inactive) each time.
Regarding `C[C@H](CCC(=O)O)[C@H]1CC[C@H]2[C@@H]3[C@H](O)C[C@@H]4C[C@H](O)CC[C@]4(C)[C@H]3C[C@H](O)[C@]12C`, the GI50 in the experiment with A498 is > 100 µM (inactive); with ACHN, > 100 µM (inactive); in the experiment on CAKI-1, > 100 µM (inactive); in the experiment with DU-145, > 100 µM (inactive); in the experiment on HCT-15 it was over 100 µM; in the experiment with HOP-62, > 100 µM (inactive). Further, the GI50 in the experiment on K562, with KM12, with MCF7, with MDA-MB-231, in the experiment with NCI-H460 and in the experiment with OVCAR-3 was > 100 µM (inactive) throughout. Besides, the GI50 with OVCAR-4, with OVCAR-8, with RPMI-8226, in the experiment on SF-539, in the experiment with SK-MEL-2 and with SNB-19 was > 100 µM (inactive) in each case. For the same compound, the GI50 in the experiment on SW-620 and in the experiment on UACC-257 was > 100 µM (inactive) in each case.
For the compound `CCOC(=O)c1c(NC(=S)Nc2ccc(C)cc2)sc2c1CCN(C)C2`, the GI50 in the experiment on A498 was 59 µM (inactive); in the experiment with ACHN, > 100 µM (inactive); with CAKI-1, > 100 µM (inactive); in the experiment with DU-145, > 100 µM (inactive); in the experiment with HCT-15, over 100 µM; in the experiment with HOP-62 it was > 100 µM (inactive). Moreover, the GI50 in the experiment on K562 is > 100 µM (inactive); in the experiment with KM12 it was 81.7 µM (inactive); with MCF7 it was > 100 µM (inactive); in the experiment with MDA-MB-231, > 100 µM (inactive); with NCI-H460 it was > 100 µM (inactive); in the experiment with OVCAR-3, > 100 µM (inactive). For the same compound, the GI50 in the experiment with OVCAR-8, in the experiment on RPMI-8226, in the experiment with SF-539, in the experiment on SK-MEL-2, in the experiment on SNB-19 and in the experiment on UACC-257 was > 100 µM (inactive) each time.
For the compound `CSc1nc(N)c(NC2OC(CO)C(O)C2O)c(=O)[nH]1` (stereo unspecified), the GI50 in the experiment with A498 is > 100 µM (inactive); with CAKI-1, > 100 µM (inactive); in the experiment on DU-145, > 100 µM (inactive); with HCT-15, over 100 µM; in the experiment on HOP-62, > 100 µM (inactive); in the experiment with K562, > 100 µM (inactive). The GI50 in the experiment on KM12, with MCF7, in the experiment with MDA-MB-231, in the experiment on NCI-H460, with OVCAR-3 and in the experiment on OVCAR-4 was > 100 µM (inactive) in each case. Besides, the GI50 with OVCAR-8, in the experiment on RPMI-8226, in the experiment on SF-539, in the experiment with SK-MEL-2, in the experiment with SNB-19 and in the experiment with SW-620 was > 100 µM (inactive) throughout. The GI50 in the experiment with UACC-257 is > 100 µM (inactive).
In the case of `COc1ccc(C23OCC(Cc4cc(OC)c(OC)cc42)C3COC(C)=O)cc1OC` (stereo unspecified), the GI50 was > 100 µM (inactive) with A498; > 100 µM (inactive) in the experiment on ACHN; > 100 µM (inactive) in the experiment on CAKI-1; > 100 µM (inactive) with DU-145; over 100 µM in the experiment on HCT-15; > 100 µM (inactive) in the experiment with HOP-62. In addition, the GI50 with K562, with KM12, in the experiment on MCF7, with MDA-MB-231, in the experiment with NCI-H460 and with OVCAR-3 was > 100 µM (inactive) throughout. Moreover, the GI50 with OVCAR-4, with RPMI-8226, with SF-539, in the experiment on SK-MEL-2, with SNB-19 and in the experiment on SW-620 was > 100 µM (inactive) in each case.
Take `O=C(O)c1ccc(C(c2c(O)oc3ccccc3c2=O)c2c(O)oc3ccccc3c2=O)cc1`: the GI50 in the experiment with A498 is 2.92 µM (inactive); in the experiment with ACHN, > 100 µM (inactive); in the experiment on CAKI-1, > 100 µM (inactive); in the experiment with DU-145 it was > 100 µM (inactive); with HCT-15 it was over 100 µM; in the experiment on HOP-62, 43 µM (inactive). Further, the GI50 in the experiment with K562 was 15.5 µM (inactive); in the experiment with KM12, > 100 µM (inactive); in the experiment on MCF7, > 100 µM (inactive); in the experiment on MDA-MB-231, > 100 µM (inactive); in the experiment on NCI-H460, > 100 µM (inactive); in the experiment with OVCAR-3, > 100 µM (inactive). For the same compound, the GI50 in the experiment on OVCAR-8 is > 100 µM (inactive); with RPMI-8226 it was 1.02 µM (active); with SF-539, > 100 µM (inactive); with SK-MEL-2, > 100 µM (inactive); in the experiment with SNB-19, > 100 µM (inactive); in the experiment on SW-620, > 100 µM (inactive). Further, the GI50 with UACC-257 is > 100 µM (inactive).
As to `CC(=O)Nc1c(C)cc2c(nc3n2CCC3OC(C)=O)c1[N+](=O)[O-]` (stereo unspecified), the GI50 was > 100 µM (inactive) with A498; > 100 µM (inactive) in the experiment with ACHN; > 100 µM (inactive) in the experiment on CAKI-1; > 100 µM (inactive) in the experiment on DU-145; over 100 µM in the experiment with HCT-15; > 100 µM (inactive) in the experiment on K562. In addition, the GI50 with KM12, in the experiment with MCF7, in the experiment with MDA-MB-231, in the experiment on NCI-H460, in the experiment with OVCAR-3 and with OVCAR-4 was > 100 µM (inactive) each time. Besides, the GI50 with OVCAR-8, in the experiment with RPMI-8226, in the experiment on SF-539, in the experiment on SK-MEL-2, in the experiment with SNB-19 and with SW-620 was > 100 µM (inactive) each time. Besides, in the experiment with UACC-257, the GI50 was > 100 µM (inactive).
For `COC(=O)c1c(O)ccc2c1c1c(n2Cc2ccccc2Cl)C(=O)c2ccccc2C1=O`, the GI50 is 16.5 µM (inactive) in the experiment with A498; 16.5 µM (inactive) in the experiment on ACHN; 13.7 µM (inactive) in the experiment with CAKI-1; 15.5 µM (inactive) in the experiment on DU-145; 12.7 µM in the experiment on HCT-15; 26 µM (inactive) in the experiment with HOP-62. For the same compound, the GI50 with K562 is 14.3 µM (inactive); with KM12, 10.1 µM (inactive); in the experiment on MCF7 it was 6.73 µM (inactive); in the experiment with MDA-MB-231 it was 15.3 µM (inactive); with NCI-H460, 6.78 µM (inactive); in the experiment with OVCAR-3, 10 µM (inactive). Moreover, the GI50 with OVCAR-4 is 2.93 µM (inactive); with OVCAR-8, 16 µM (inactive); in the experiment with RPMI-8226, 5.98 µM (inactive); in the experiment on SF-539, 15.4 µM (inactive); in the experiment with SK-MEL-2, 17.4 µM (inactive); with SNB-19, 16 µM (inactive). Also, in the experiment with UACC-257, the GI50 is 17.9 µM (inactive).
As for `O=C(CN1CCCC1)Nc1ccc2c(c1)C1Oc3ccccc3CC1CO2` (stereo unspecified), the GI50 was > 100 µM (inactive) in the experiment on A498; 49.3 µM (inactive) with CAKI-1; > 100 µM (inactive) with DU-145; 18.6 µM in the experiment on HCT-15; 19.7 µM (inactive) in the experiment with HOP-62; 38.6 µM (inactive) with K562. For the same compound, the GI50 was 43.4 µM (inactive) in the experiment with KM12; 17.3 µM (inactive) in the experiment with MCF7; 22.9 µM (inactive) with MDA-MB-231; 57.5 µM (inactive) in the experiment on OVCAR-3; 97.5 µM (inactive) in the experiment with OVCAR-8; 25.1 µM (inactive) with RPMI-8226. Also, the GI50 in the experiment on SF-539 is 18.8 µM (inactive); in the experiment with SK-MEL-2, 23.9 µM (inactive); with SW-620, 17.3 µM (inactive); in the experiment on UACC-257, 21.2 µM (inactive).
